ChEMBL document CHEMBL1201862, “PubChem BioAssay data set” (2004)
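Tested at 5 concentrations; 48 h exposure; 96-well plates; endpoints linearly interpolated, else capped at highest concentration. Here, GI50 denotes the concentration required for 50% inhibition of growth.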 Calls of active or inactive are those of the source. Cut-off read from the data, not from the text of the source: active = GI50 up to about 1.1 µM and inactive = higher.

How the values were obtained:
Assay in all cases: NCI tumour cell line growth inhibition, 48 h
A498 = tested on: A498
A549 = tested on: A549
DU-145 = tested on: DU-145
EKVX = tested on: EKVX
HOP-92 = tested on: HOP-92
IGROV-1 = tested on: IGROV-1
MOLT-4 = tested on: MOLT-4
Malme-3M = tested on: Malme-3M
NCI-H23 = tested on: NCI-H23
OVCAR-3 = tested on: OVCAR-3
OVCAR-4 = tested on: OVCAR-4
RPMI-8226 = tested on: RPMI-8226
SF-539 = tested on: SF-539
SK-MEL-28 = tested on: SK-MEL-28
SK-MEL-5 = tested on: SK-MEL-5
SN12C = tested on: SN12C
SR = tested on: SR
T47D = tested on: T47D
SNB-75 = tested on: SNB-75

Row | SMILES | GI50 (A498) | GI50 (A549) | GI50 (DU-145) | GI50 (EKVX) | GI50 (HOP-92) | GI50 (IGROV-1) | GI50 (MOLT-4) | GI50 (Malme-3M) | GI50 (NCI-H23) | GI50 (OVCAR-3) | GI50 (OVCAR-4) | GI50 (RPMI-8226) | GI50 (SF-539) | GI50 (SK-MEL-28) | GI50 (SK-MEL-5) | GI50 (SN12C) | GI50 (SR) | GI50 (T47D) | GI50 (SNB-75)
1 | CCOC(=O)Nc1ccc(S(=O)(=O)Nn2cnnc2)cc1 | 27.2 µM (inactive) | 60.4 µM (inactive) | > 100 µM (inactive) | > 100 µM (inactive) | 63.7 µM (inactive) | 40.7 µM (inactive) | 50.7 µM (inactive) | 44.3 µM (inactive) | > 100 µM (inactive) | 27.9 µM (inactive) | 17.5 µM (inactive) | 22.6 µM (inactive) | 22.4 µM (inactive) | 42.8 µM (inactive) | 23.9 µM (inactive) | 53.1 µM (inactive) | 23.9 µM (inactive) | > 100 µM (inactive) | –
2 | N#Cc1cc2cc3c4c(c2oc1=O)CCCN4CCC3 | > 100 µM (inactive) | > 100 µM (inactive) | > 100 µM (inactive) | 5.02 µM (inactive) | > 100 µM (inactive) | > 100 µM (inactive) | > 100 µM (inactive) | – | > 100 µM (inactive) | > 100 µM (inactive) | > 100 µM (inactive) | > 100 µM (inactive) | > 100 µM (inactive) | > 100 µM (inactive) | > 100 µM (inactive) | > 100 µM (inactive) | > 100 µM (inactive) | > 100 µM (inactive) | > 76.4 µM (inactive)
3 | COc1cc(C2SCC(=O)N2c2ccc(NC(C)=O)cc2)cc(OC)c1OC (configuration not stated) | > 100 µM (inactive) | > 100 µM (inactive) | > 100 µM (inactive) | > 100 µM (inactive) | 48.3 µM (inactive) | > 100 µM (inactive) | 50.9 µM (inactive) | – | > 100 µM (inactive) | > 100 µM (inactive) | > 100 µM (inactive) | > 100 µM (inactive) | > 100 µM (inactive) | > 100 µM (inactive) | > 100 µM (inactive) | 81.5 µM (inactive) | 31.2 µM (inactive) | 16.6 µM (inactive) | –
4 | C/C(=N\N=C(/S)N1CC2CCC(CC2)C1)c1ccncn1 | 0.291 µM (active) | < 0.01 µM (active) | 0.309 µM (active) | < 0.01 µM (active) | – | < 0.01 µM (active) | < 0.01 µM (active) | < 0.01 µM (active) | < 0.01 µM (active) | < 0.01 µM (active) | 0.741 µM (active) | < 0.01 µM (active) | < 0.01 µM (active) | 0.863 µM (active) | < 0.01 µM (active) | 0.0152 µM (active) | < 0.01 µM (active) | < 0.01 µM (active) | 0.221 µM (active)
5 | C[N+](C)(C)c1ncnc2c1ncn2C1CCCCO1 (configuration not stated) | > 100 µM (inactive) | > 100 µM (inactive) | > 100 µM (inactive) | > 100 µM (inactive) | > 100 µM (inactive) | > 100 µM (inactive) | > 100 µM (inactive) | > 100 µM (inactive) | > 100 µM (inactive) | > 100 µM (inactive) | > 100 µM (inactive) | > 100 µM (inactive) | – | > 100 µM (inactive) | > 100 µM (inactive) | > 100 µM (inactive) | > 100 µM (inactive) | > 100 µM (inactive) | > 100 µM (inactive)
6 | CCOC(=O)CC(C)C(C#N)(OP1(=O)OC(c2ccccc2)C(C)N1C)c1ccccc1 (configuration not stated) | 65.3 µM (inactive) | 47 µM (inactive) | 97.5 µM (inactive) | 62.2 µM (inactive) | 17.8 µM (inactive) | 55.2 µM (inactive) | 28.8 µM (inactive) | 85.1 µM (inactive) | 66.1 µM (inactive) | 50.7 µM (inactive) | – | 36.3 µM (inactive) | > 100 µM (inactive) | 81.7 µM (inactive) | 47.6 µM (inactive) | 58.9 µM (inactive) | 48.6 µM (inactive) | 30.5 µM (inactive) | –
7 | Cc1cc(=O)nc(S(=O)(=O)NC(=O)Nc2cccc(Cl)c2)[nH]1 | > 100 µM (inactive) | > 100 µM (inactive) | > 100 µM (inactive) | > 100 µM (inactive) | 6.93 µM (inactive) | > 100 µM (inactive) | 32.7 µM (inactive) | > 100 µM (inactive) | > 100 µM (inactive) | 47.1 µM (inactive) | – | – | > 100 µM (inactive) | > 100 µM (inactive) | > 100 µM (inactive) | > 100 µM (inactive) | > 100 µM (inactive) | > 88.5 µM (inactive) | 49.4 µM (inactive)
8 | CCCCCCCCCCCCCCCCCCNc1ccn(C2OC(COP(=O)(O)OCC3OC(n4ccc(NC(=O)CCCCCCCCCCCCCCCCC)nc4=O)C(OC(C)=O)C3OC(C)=O)C(OC(C)=O)C2OC(C)=O)c(=O)n1 (configuration not stated) | > 100 µM (inactive) | > 100 µM (inactive) | > 100 µM (inactive) | > 100 µM (inactive) | – | > 100 µM (inactive) | > 100 µM (inactive) | > 100 µM (inactive) | > 100 µM (inactive) | > 100 µM (inactive) | > 100 µM (inactive) | > 100 µM (inactive) | > 100 µM (inactive) | > 100 µM (inactive) | > 100 µM (inactive) | > 100 µM (inactive) | > 100 µM (inactive) | > 100 µM (inactive) | > 100 µM (inactive)
9 | CCOC(=O)/C(=N\OC)C(O)C(F)(F)F (configuration not stated) | > 100 µM (inactive) | > 100 µM (inactive) | > 100 µM (inactive) | > 100 µM (inactive) | – | > 100 µM (inactive) | > 100 µM (inactive) | > 100 µM (inactive) | > 100 µM (inactive) | – | – | > 100 µM (inactive) | > 100 µM (inactive) | > 100 µM (inactive) | > 100 µM (inactive) | > 100 µM (inactive) | > 100 µM (inactive) | > 100 µM (inactive) | > 100 µM (inactive)
10 | COc1cc2c(c(OC)c1OC)-c1ccc(SC)c(=O)cc1[C@@H](O)CC2 | 0.0305 µM (active) | 0.000895 µM (active) | 0.000665 µM (active) | 0.000748 µM (active) | – | 0.00067 µM (active) | 0.00108 µM (active) | 0.00021 µM (active) | 0.000803 µM (active) | – | > 1 µM (active) | – | 0.000356 µM (active) | 0.0222 µM (active) | – | 0.00265 µM (active) | 0.00258 µM (active) | > 1 µM (active) | 0.01 µM (active)
11 | CCOC(=O)c1csc(NC(=O)CCN2CCOCC2)n1 | > 100 µM (inactive) | > 100 µM (inactive) | 44.7 µM (inactive) | 77.3 µM (inactive) | 69.3 µM (inactive) | 41 µM (inactive) | 25.9 µM (inactive) | 19.3 µM (inactive) | > 100 µM (inactive) | 39.6 µM (inactive) | > 100 µM (inactive) | 43.3 µM (inactive) | > 100 µM (inactive) | > 100 µM (inactive) | 67.1 µM (inactive) | – | 66.2 µM (inactive) | > 100 µM (inactive) | –
12 | Cc1cnc2c(c1)C(=O)N(c1ccc(Oc3ccccc3)cc1)S2(=O)=O | – | > 100 µM (inactive) | > 100 µM (inactive) | > 100 µM (inactive) | > 100 µM (inactive) | 57.8 µM (inactive) | > 100 µM (inactive) | 67.1 µM (inactive) | > 100 µM (inactive) | > 100 µM (inactive) | 83.8 µM (inactive) | > 100 µM (inactive) | > 100 µM (inactive) | > 100 µM (inactive) | > 100 µM (inactive) | > 100 µM (inactive) | > 100 µM (inactive) | > 100 µM (inactive) | > 100 µM (inactive)
13 | COC(=O)C1OC(O[C@H]2CC[C@]3(C)[C@H]4CC=C5[C@@H]6CC(C)(C)CC[C@]6(C(=O)OC)[C@H](O)C[C@@]5(C)[C@]4(C)CC[C@H]3C2(C)C)C(O)C(O)C1O (some centres not stated) | 12.6 µM (inactive) | 4.08 µM (inactive) | 10 µM (inactive) | 7.96 µM (inactive) | 16.8 µM (inactive) | 12.3 µM (inactive) | 3.61 µM (inactive) | 12.8 µM (inactive) | 6.21 µM (inactive) | 10.4 µM (inactive) | 5.68 µM (inactive) | 4.9 µM (inactive) | – | 11.1 µM (inactive) | 13.4 µM (inactive) | 12.9 µM (inactive) | 3.42 µM (inactive) | 12.6 µM (inactive) | 14.8 µM (inactive)
14 | CCC/C(Cl)=N\OC(=O)Nc1ccc(F)cc1 | 16.9 µM (inactive) | 52.8 µM (inactive) | 17 µM (inactive) | 17.3 µM (inactive) | 4.43 µM (inactive) | 17.3 µM (inactive) | 2.47 µM (inactive) | 6.87 µM (inactive) | 20.3 µM (inactive) | 5.24 µM (inactive) | 16.9 µM (inactive) | 6.01 µM (inactive) | – | 18.5 µM (inactive) | 13.3 µM (inactive) | 16.7 µM (inactive) | 2.18 µM (inactive) | 7.24 µM (inactive) | > 42.7 µM (inactive)
15 | CCc1ccccc1NC(=O)/C=C/c1ccccc1 | > 100 µM (inactive) | > 100 µM (inactive) | > 100 µM (inactive) | > 100 µM (inactive) | – | – | > 100 µM (inactive) | > 100 µM (inactive) | > 100 µM (inactive) | > 100 µM (inactive) | > 100 µM (inactive) | > 100 µM (inactive) | > 100 µM (inactive) | > 100 µM (inactive) | > 100 µM (inactive) | > 100 µM (inactive) | > 100 µM (inactive) | > 100 µM (inactive) | > 100 µM (inactive)
16 | C[Si](C)(C)CNC(=O)OCc1ccccc1 | > 100 µM (inactive) | > 100 µM (inactive) | > 100 µM (inactive) | 76.7 µM (inactive) | 22.1 µM (inactive) | > 100 µM (inactive) | – | – | 76 µM (inactive) | > 100 µM (inactive) | 87.1 µM (inactive) | 32.2 µM (inactive) | > 100 µM (inactive) | > 100 µM (inactive) | 57.7 µM (inactive) | > 100 µM (inactive) | 30.6 µM (inactive) | 19.1 µM (inactive) | 90.4 µM (inactive)
